# Measurements taken from ChEMBL document CHEMBL1201862, “PubChem BioAssay data set” (2004).
#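 Method: 48-hour compound exposure of cells in 96-well plates, five concentrations, linear interpolation of endpoints. GI50 = concentration required for 50% inhibition of growth.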 The source made the active and inactive calls. Cut-off read from the data, not from the text of the source: active = GI50 up to about 1.1 µM and inactive = higher.
# Tests used:
# Experiment in all cases: NCI tumour cell line growth inhibition, 48 h
# COLO 205 = test system: COLO 205
# HCC 2998 = test system: HCC 2998
# M14 = test system: M14
# A549 = test system: A549
# CCRF-CEM = test system: CCRF-CEM
# OVCAR-8 = test system: OVCAR-8
# CAKI-1 = test system: CAKI-1
# SK-MEL-5 = test system: SK-MEL-5
# HOP-92 = test system: HOP-92
# NCI-H23 = test system: NCI-H23
# DU-145 = test system: DU-145
# HCT-15 = test system: HCT-15
# SF-539 = test system: SF-539
# RPMI-8226 = test system: RPMI-8226
# TK-10 = test system: TK-10
# HL-60 = test system: HL-60
# SN12C = test system: SN12C
# SK-OV-3 = test system: SK-OV-3
# UACC-257 = test system: UACC-257
# 786-0 = test system: 786-0
# HOP-62 = test system: HOP-62
# SR = test system: SR
# UO-31 = test system: UO-31
# SNB-75 = test system: SNB-75
# A498 = test system: A498
# SW-620 = test system: SW-620
# NCI/ADR-RES = test system: NCI/ADR-RES
# T47D = test system: T47D
# IGROV-1 = test system: IGROV-1
# OVCAR-3 = test system: OVCAR-3
# PC-3 = test system: PC-3
# KM12 = test system: KM12
# K562 = test system: K562
# MOLT-4 = test system: MOLT-4
# MDA-MB-231 = test system: MDA-MB-231
# LOX IMVI = test system: LOX IMVI
# EKVX = test system: EKVX
# BT-549 = test system: BT-549
# MDA-N = test system: MDA-N
# NCI-H522 = test system: NCI-H522
# SNB-19 = test system: SNB-19
# SF-268 = test system: SF-268
# OVCAR-4 = test system: OVCAR-4
# HCT-116 = test system: HCT-116
# ACHN = test system: ACHN
# HT-29 = test system: HT-29
# NCI-H460 = test system: NCI-H460
# Hs-578T = test system: Hs-578T
# RXF 393 = test system: RXF 393
# U-251 = test system: U-251
# MDA-MB-435 = test system: MDA-MB-435
# SK-MEL-2 = test system: SK-MEL-2
# SK-MEL-28 = test system: SK-MEL-28
# SF-295 = test system: SF-295
# NCI-H226 = test system: NCI-H226
# UACC-62 = test system: UACC-62
# MCF7 = test system: MCF7
# OVCAR-5 = test system: OVCAR-5
# Malme-3M = test system: Malme-3M
compound,measurement,setting,value
C=CCC(CNC(=O)OCc1ccccc1)OC(=O)OCc1ccccc1 (centres undefined),GI50,COLO 205,39.1 µM (inactive)
same,GI50,HCC 2998,> 100 µM (inactive)
same,GI50,M14,> 100 µM (inactive)
same,GI50,A549,51.3 µM (inactive)
same,GI50,CCRF-CEM,47.4 µM (inactive)
same,GI50,OVCAR-8,69 µM (inactive)
same,GI50,CAKI-1,> 100 µM (inactive)
same,GI50,SK-MEL-5,22 µM (inactive)
same,GI50,HOP-92,52.6 µM (inactive)
same,GI50,NCI-H23,43.9 µM (inactive)
same,GI50,DU-145,> 100 µM (inactive)
same,GI50,HCT-15,74.3 µM
same,GI50,SF-539,> 100 µM (inactive)
same,GI50,RPMI-8226,26.1 µM (inactive)
same,GI50,TK-10,> 100 µM (inactive)
same,GI50,HL-60,34 µM (inactive)
same,GI50,SN12C,> 100 µM (inactive)
same,GI50,SK-OV-3,> 100 µM (inactive)
same,GI50,UACC-257,73.3 µM (inactive)
same,GI50,786-0,91.2 µM (inactive)
same,GI50,HOP-62,> 100 µM (inactive)
same,GI50,SR,21.8 µM (inactive)
same,GI50,UO-31,> 100 µM (inactive)
same,GI50,SNB-75,> 100 µM (inactive)
same,GI50,A498,> 100 µM (inactive)
same,GI50,SW-620,> 100 µM (inactive)
same,GI50,NCI/ADR-RES,> 100 µM (inactive)
same,GI50,T47D,47.8 µM (inactive)
same,GI50,IGROV-1,> 100 µM (inactive)
same,GI50,OVCAR-3,63.2 µM (inactive)
same,GI50,PC-3,48.3 µM (inactive)
same,GI50,KM12,48.1 µM (inactive)
same,GI50,K562,37.3 µM (inactive)
same,GI50,MOLT-4,25.8 µM (inactive)
same,GI50,MDA-MB-231,> 100 µM (inactive)
same,GI50,LOX IMVI,> 100 µM (inactive)
same,GI50,EKVX,33.4 µM (inactive)
same,GI50,BT-549,> 100 µM (inactive)
same,GI50,MDA-N,47.1 µM (inactive)
same,GI50,NCI-H522,62.1 µM (inactive)
same,GI50,SNB-19,> 100 µM (inactive)
same,GI50,SF-268,> 100 µM (inactive)
same,GI50,OVCAR-4,69.8 µM (inactive)
same,GI50,HCT-116,51.9 µM (inactive)
same,GI50,ACHN,> 100 µM (inactive)
same,GI50,HT-29,36.3 µM (inactive)
same,GI50,NCI-H460,> 100 µM (inactive)
same,GI50,Hs-578T,> 100 µM (inactive)
same,GI50,RXF 393,> 100 µM (inactive)
same,GI50,U-251,> 100 µM (inactive)
same,GI50,MDA-MB-435,57 µM (inactive)
same,GI50,SK-MEL-2,48.2 µM (inactive)
same,GI50,SK-MEL-28,> 100 µM (inactive)
same,GI50,SF-295,55.5 µM (inactive)
same,GI50,NCI-H226,> 100 µM (inactive)
same,GI50,UACC-62,93.5 µM (inactive)
same,GI50,MCF7,39.1 µM (inactive)
same,GI50,OVCAR-5,> 100 µM (inactive)
CCOC(=O)n1cncc1CC(NC(=O)Cc1c(C(=O)C=C(C)C)[nH]c2ccccc12)C(=O)OC (centres undefined),GI50,COLO 205,18.1 µM (inactive)
same,GI50,HCC 2998,13.9 µM (inactive)
same,GI50,M14,15.6 µM (inactive)
same,GI50,A549,19.2 µM (inactive)
same,GI50,CCRF-CEM,0.708 µM (active)
same,GI50,OVCAR-8,18.5 µM (inactive)
same,GI50,CAKI-1,17.9 µM (inactive)
same,GI50,SK-MEL-5,18 µM (inactive)
same,GI50,HOP-92,12 µM (inactive)
same,GI50,NCI-H23,25.4 µM (inactive)
same,GI50,DU-145,18.5 µM (inactive)
same,GI50,HCT-15,19.1 µM
same,GI50,SF-539,19.5 µM (inactive)
same,GI50,RPMI-8226,32.5 µM (inactive)
same,GI50,TK-10,18.2 µM (inactive)
same,GI50,HL-60,18 µM (inactive)
same,GI50,SN12C,16.3 µM (inactive)
same,GI50,SK-OV-3,17.5 µM (inactive)
same,GI50,UACC-257,13.3 µM (inactive)
same,GI50,786-0,21.5 µM (inactive)
same,GI50,SR,3.56 µM (inactive)
same,GI50,UO-31,15.7 µM (inactive)
same,GI50,SNB-75,22.9 µM (inactive)
same,GI50,A498,24.9 µM (inactive)
same,GI50,SW-620,25.7 µM (inactive)
same,GI50,NCI/ADR-RES,33.4 µM (inactive)
same,GI50,T47D,2.8 µM (inactive)
same,GI50,IGROV-1,14.9 µM (inactive)
same,GI50,OVCAR-3,17.7 µM (inactive)
same,GI50,PC-3,17 µM (inactive)
same,GI50,KM12,19.3 µM (inactive)
same,GI50,Malme-3M,17.2 µM (inactive)
same,GI50,K562,33.7 µM (inactive)
same,GI50,MOLT-4,20 µM (inactive)
same,GI50,MDA-MB-231,15.5 µM (inactive)
same,GI50,LOX IMVI,15.5 µM (inactive)
same,GI50,EKVX,15.5 µM (inactive)
same,GI50,BT-549,20 µM (inactive)
same,GI50,MDA-N,23 µM (inactive)
same,GI50,NCI-H522,3.56 µM (inactive)
same,GI50,SNB-19,14.5 µM (inactive)
same,GI50,SF-268,18 µM (inactive)
same,GI50,OVCAR-4,18.5 µM (inactive)
same,GI50,HCT-116,27.9 µM (inactive)
same,GI50,ACHN,19.3 µM (inactive)
same,GI50,HT-29,22.3 µM (inactive)
same,GI50,NCI-H460,22.3 µM (inactive)
same,GI50,Hs-578T,19.3 µM (inactive)
same,GI50,RXF 393,14.1 µM (inactive)
same,GI50,U-251,19.5 µM (inactive)
same,GI50,MDA-MB-435,18.2 µM (inactive)
same,GI50,SK-MEL-2,17 µM (inactive)
same,GI50,SK-MEL-28,16 µM (inactive)
same,GI50,SF-295,17.7 µM (inactive)
same,GI50,NCI-H226,20.8 µM (inactive)
same,GI50,UACC-62,20.3 µM (inactive)
same,GI50,MCF7,24.7 µM (inactive)
same,GI50,OVCAR-5,15.5 µM (inactive)
Nc1ccc(Oc2ccc(C34CC5CC6C3CC3CC4C(C5)C6(c4ccc(Oc5ccc(N)c(O)c5)cc4)C3)cc2)cc1O,GI50,COLO 205,1.31 µM (inactive)
same,GI50,HCC 2998,1.87 µM (inactive)
same,GI50,M14,2.27 µM (inactive)
same,GI50,A549,1.9 µM (inactive)
same,GI50,CCRF-CEM,3.33 µM (inactive)
same,GI50,OVCAR-8,0.67 µM (active)
same,GI50,CAKI-1,4.5 µM (inactive)
same,GI50,SK-MEL-5,2.96 µM (inactive)
same,GI50,HOP-92,1.35 µM (inactive)
same,GI50,NCI-H23,3.55 µM (inactive)
same,GI50,DU-145,4.73 µM (inactive)
same,GI50,HCT-15,3.44 µM
same,GI50,SF-539,0.0255 µM (active)
same,GI50,RPMI-8226,1.93 µM (inactive)
same,GI50,TK-10,4.92 µM (inactive)
same,GI50,HL-60,0.542 µM (active)
same,GI50,SN12C,1.72 µM (inactive)
same,GI50,SK-OV-3,10.1 µM (inactive)
same,GI50,UACC-257,3.64 µM (inactive)
same,GI50,786-0,3.15 µM (inactive)
same,GI50,HOP-62,4.78 µM (inactive)
same,GI50,SR,1.62 µM (inactive)
same,GI50,UO-31,2.42 µM (inactive)
same,GI50,A498,7.36 µM (inactive)
same,GI50,SW-620,4.25 µM (inactive)
same,GI50,NCI/ADR-RES,3.1 µM (inactive)
same,GI50,T47D,0.652 µM (active)
same,GI50,IGROV-1,5.14 µM (inactive)
same,GI50,OVCAR-3,1.47 µM (inactive)
same,GI50,PC-3,1.66 µM (inactive)
same,GI50,KM12,3.69 µM (inactive)
same,GI50,Malme-3M,13.8 µM (inactive)
same,GI50,K562,2.79 µM (inactive)
same,GI50,MOLT-4,2.29 µM (inactive)
same,GI50,MDA-MB-231,3.75 µM (inactive)
same,GI50,LOX IMVI,2.87 µM (inactive)
same,GI50,EKVX,1.79 µM (inactive)
same,GI50,BT-549,1.15 µM (inactive)
same,GI50,MDA-N,3.22 µM (inactive)
same,GI50,NCI-H522,1.61 µM (inactive)
same,GI50,SNB-19,3.57 µM (inactive)
same,GI50,SF-268,3.33 µM (inactive)
same,GI50,OVCAR-4,4.27 µM (inactive)
same,GI50,HCT-116,1.31 µM (inactive)
same,GI50,ACHN,2.44 µM (inactive)
same,GI50,HT-29,3.59 µM (inactive)
same,GI50,NCI-H460,3.56 µM (inactive)
same,GI50,Hs-578T,17.2 µM (inactive)
same,GI50,RXF 393,4.13 µM (inactive)
same,GI50,U-251,2.58 µM (inactive)
same,GI50,MDA-MB-435,3.83 µM (inactive)
same,GI50,SK-MEL-2,19.5 µM (inactive)
same,GI50,SK-MEL-28,7.06 µM (inactive)
same,GI50,SF-295,3.58 µM (inactive)
same,GI50,NCI-H226,3.52 µM (inactive)
same,GI50,UACC-62,10.1 µM (inactive)
same,GI50,MCF7,4.55 µM (inactive)
same,GI50,OVCAR-5,2 µM (inactive)
